Values joined by “and” are separate entries in the source; they are usually repeats but may differ in a detail not shown here. Equal values may be shown once. Read-outs that look alike come from different tables or passages of the source.
Target: T1, human GPR119 (Homo sapiens, UniProt Q8TDV5)
T1 construct: host or cells: HEK293-CRE beta-lactamase cells
T1 sequence (Q8TDV5 1-335): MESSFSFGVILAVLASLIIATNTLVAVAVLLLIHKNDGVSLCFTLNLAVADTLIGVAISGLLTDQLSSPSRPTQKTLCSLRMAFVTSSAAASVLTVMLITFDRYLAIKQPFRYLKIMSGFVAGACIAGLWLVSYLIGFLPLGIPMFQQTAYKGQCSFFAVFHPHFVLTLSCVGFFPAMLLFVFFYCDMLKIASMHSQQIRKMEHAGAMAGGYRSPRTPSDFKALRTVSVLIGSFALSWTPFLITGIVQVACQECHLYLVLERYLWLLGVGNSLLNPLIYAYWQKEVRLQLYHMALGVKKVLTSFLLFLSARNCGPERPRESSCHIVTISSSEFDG
Experiment: cAMP functional assay (HTRF, hGPR119 HEK-CRE beta-lactamase cells)
Assay type: cell-based
Description: GPR119 agonist activity was also determined with a cell-based assay utilizing an HTRF (Homogeneous Time-Resolved Fluorescence) cAMP detection kit (cAMP dynamic 2 Assay Kit; Cis Bio cat #62AM4PEC) that measures cAMP levels in the cell. The method is a competitive immunoassay between native cAMP produced by the cells and the cAMP labeled with the dye d2. The tracer binding is visualized by a Mab anti-cAMP labeled with Cryptate. The specific signal (i.e. energy transfer) is inversely proportional to the concentration of cAMP in either standard or sample.
Specifically, hGPR119HEK-CRE beta-lactamase cells (Invitrogen 2.5×10^7/ml; the same cell line used in the beta-lactamase assay described above) are removed from cryopreservation and diluted in growth medium (Dulbecco's modified Eagle medium high glucose (DMEM; Gibco Cat #11995-065), 1% charcoal dextran treated fetal bovine serum (CD serum; HyClone Cat #SH30068.03), 1×MEM Nonessential amino acids (Gibco Cat #15630-080) and 25 mM HEPES pH 7.0 (Gibco Cat #15630-080)). The cell concentration was adjusted to 1.5×10^5 cells/ml and 30 mls of this suspension was added to a T-175 flask and incubated at 37 degrees Celsius in a humidified environment in 5% carbon dioxide. After 16 hours (overnight), the cells were removed from the T-175 flask (by rapping the side of the flask), centrifuged at 800×g and then re-suspended in assay medium (1×HBSS+CaCl2+MgCl2 (Gibco Cat #14025-092) and 25 mM HEPES pH 7.0 (Gibco Cat #15630-080)). The cell concentration was adjusted to 6.25×10^5 cells/ml with assay medium and 8 μl of this cell suspension (5000 cells) was added to each well of a white Greiner 384-well, low-volume assay plate (VWR cat #82051-458).
Varying concentrations of each compound to be tested were diluted in assay buffer containing 3-isobutyl-1-methylxanthin (IBMX; Sigma cat #15879) and added to the assay plate wells in a volume of 2 microL (final IBMX concentration was 400 microM and final DMSO concentration was 0.58%). Following 30 minutes incubation at room temperature, 5 microL of labeled d2 cAMP and 5 microL of anti-cAMP antibody (both diluted 1:20 in cell lysis buffer; as described in the manufacturers assay protocol) were added to each well of the assay plate. The plates were then incubated at room temperature and after 60 minutes, changes in the HTRF signal were read with an Envision 2104 multilabel plate reader using excitation of 330 nm and emissions of 615 and 665 nm. Raw data were converted to nM cAMP by interpolation from a cAMP standard curve (as described in the manufacturer's assay protocol) and EC50 determinations were made from an agonist-response curves analyzed with a curve fitting program using a 4-paramter logistic dose response equation.

[1] = hGPR119 HEK-CRE beta-lactamase cells, HTRF cAMP, 30 minutes, one line per run, read-out: Human cAMP Functional EC50
[2] = percent of maximal activity relative to standard GPR119 agonist (WO2005121121) at 10 μM, one line per run, read-out: Intrinsic Activity* (%) (cAMP)

Row | EC50 [1] | Emax [2] | EC50 (**the curve was extrapolated to 100% to calculate an EC50, read-out: Human cAMP Functional EC50 (nM), curve extrapolated to 100%) | Emax (**the curve was extrapolated to 100% to calculate an EC50, read-out: Intrinsic Activity* (%) (cAMP), curve extrapolated to 100%) | SMILES
1 | 182 nM and 78 nM and 85 nM |  |  |  | Cc1c(O[C@H]2CCN(C(=O)OC(C)(C)C)C[C@@H]2F)ncnc1N1Cc2cnn(C)c2C1 (racemic) [Example 8, tert-Butyl (3,4-trans)-3-fluoro-4-{[5-methyl-6-(1-methyl-4,6-dihydropyrrolo[3,4-c]pyrazol-5(1H)-yl)pyrimidin-4-yl]oxy}piperidine-1-carboxylate (racemic)]
2 | 64 nM and 57 nM and 77 nM | 72% |  |  | Cc1c(O[C@H]2[C@@H]3COC[C@H]2CN(C(=O)OC(C)(C)C)C3)ncnc1N1Cc2cnn(C)c2C1 [Example 9, tert-Butyl (9-anti)-9-{[5-methyl-6-(1-methyl-4,6-dihydropyrrolo[3,4-c]pyrazol-5(1H)-yl)pyrimidin-4-yl]oxy}-3-oxa-7-azabicyclo[3.3.1]nonane-7-carboxylate]

The remaining lines, values behind:

Row | SMILES | EC50 [1] | Emax [2] | EC50 (**the curve was extrapolated to 100% to calculate an EC50, read-out: Human cAMP Functional EC50 (nM), curve extrapolated to 100%) | Emax (**the curve was extrapolated to 100% to calculate an EC50, read-out: Intrinsic Activity* (%) (cAMP), curve extrapolated to 100%)
3 | Cc1c(O[C@H]2CCN(C(=O)OC(C)(C)C)C[C@H]2F)ncnc1N1Cc2cnn(C)c2C1 (racemic) [Example 6, tert-Butyl (3,4-cis)-3-fluoro-4-{[5-methyl-6-(1-methyl-4,6-dihydropyrrolo[3,4-c]pyrazol-5(1H)-yl)pyrimidin-4-yl]oxy}piperidine-1-carboxylate (racemic)] | 39 nM and 35 nM and 133 nM and 289 nM | 60% |  | 
4 | Cc1c(O[C@H]2CCN(C(=O)OC3(C)CC3)C[C@H]2F)ncnc1N1Cc2cnn(C)c2C1 (racemic) [Example 7, 1-Methylcyclopropyyl (3,4-cis)-3-fluoro-4-{[5-methyl-6-(1-methyl-4,6-dihydropyrrolo[3,4-c]pyrazol-5(1H)-yl)pyrimidin-4-yl]oxy}piperidine-1-carboxylate (racemic)] | 17 nM and 14 nM and 12 nM | 80% |  | 
5 | Cc1c(OC2CCN(C(=O)OC(C)C)CC2)ncnc1N1Cc2cnn(C)c2C1 [Example 2, Isopropyyl 4-{[5-methyl-6-(1-methyl-4,6-dihydropyrrolo[3,4-c]pyrazol-5(1H)-yl)pyrimidin-4-yl]oxy}piperidine-1-carboxylate] | 296 nM and 170 nM and 135 nM and 434 nM | 45% |  | 
6 | CC(C)OC(=O)N1CCC(Oc2ncnc(N3Cc4cnn(C)c4C3)c2C#N)CC1 [Example 3, Isopropyyl 4-{[5-cyano-6-(1-methyl-4,6-dihydropyrrolo[3,4-c]pyrazol-5(1H)-yl)pyrimidin-4-yl]oxy}piperidine-1-carboxylate] |  | 51% | 6250 nM | 100%
